Laboratory results taken from paper PMC12892976, “Alkylation-based optimization of antifungal FPPS inhibitors yields a potent, broad-spectrum lipophilic zoledronate derivative” (mBio, 2025).

How the values were obtained:
Aspergillus terreus = experiment: checkerboard drug interaction (FICI, MICc); type: cell-based; details: with VOR;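 further: simplified diagonal checkerboard screen pairing antifungals with FPPS inhibitors, FICI derived by the Loewe additivity model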
Description: (§1) Drug interactions between antifungals and FPPS inhibitors were investigated using a simplified checkerboard diagonal screening method ([45]). […] FICIs were determined according to the Loewe additivity model ([17]).

Aspergillus udagawae = experiment: checkerboard drug interaction (FICI, MICc); type: cell-based;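 further: simplified diagonal checkerboard screen pairing antifungals with FPPS inhibitors, FICI calculated using the Loewe additivity model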
Description: as §1

Microsporum canis = experiment: checkerboard drug interaction (FICI, MICc); type: cell-based;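 further: simplified diagonal checkerboard screen pairing antifungals with FPPS inhibitors, FICI calculated under the Loewe additivity model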
Description: as §1

Nannizzia nana = experiment: checkerboard drug interaction (FICI, MICc); type: cell-based;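 further: simplified diagonal checkerboard screen pairing antifungals with FPPS inhibitors, FICI calculated under the Loewe additivity model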
Description: as §1

Trichophyton tonsurans [1] = experiment: checkerboard drug interaction (FICI, MICc); type: cell-based;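 further: simplified diagonal checkerboard screen combining antifungals with FPPS inhibitors, with FICI calculated under the Loewe additivity model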
Description: as §1

Fusarium solani = experiment: MIC broth microdilution (CLSI); details: Fusarium solani 04-16-056-1862
Description: (§2) Antifungal susceptibility was determined by broth microdilution according to the CLSI guidelines described in M27-Ed4 ([16]).

Trichophyton tonsurans [2] = experiment: MIC broth microdilution (CLSI); details: Trichophyton tonsurans R-168
Description: as §2

Trichophyton soudanense = experiment: MIC broth microdilution (CLSI); details: Trichophyton soudanense R-167
Description: as §2

[3] = tested on: Aspergillus frankstonensis; experiment: checkerboard drug interaction (FICI, MICc);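 further: simplified diagonal checkerboard screen pairing antifungals with FPPS inhibitors, FICI calculated using the Loewe additivity model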
Description: as §1

Epidermophyton floccosum = experiment: checkerboard drug interaction (FICI, MICc);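 further: simplified diagonal checkerboard screen pairing antifungals with FPPS inhibitors, FICI calculated under the Loewe additivity model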
Description: as §1

Paraphyton cookei = experiment: checkerboard drug interaction (FICI, MICc);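 further: simplified diagonal checkerboard screen pairing an antifungal with an FPPS inhibitor, FICI computed under the Loewe additivity model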
Description: as §1

Nannizzia gypsea = experiment: checkerboard drug interaction (FICI, MICc);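 further: simplified diagonal checkerboard screen pairing antifungals with FPPS inhibitors, FICI derived using the Loewe additivity model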
Description: as §1

[4] = tested on: Trichophyton interdigitale; experiment: checkerboard drug interaction (FICI, MICc);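 further: simplified diagonal checkerboard screen pairing antifungals with FPPS inhibitors, FICI values calculated under the Loewe additivity model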
Description: as §1

`CCCCCCCCCCn1cc[n+](CC(O)(P(=O)(O)O)P(=O)(O)O)c1` [10-ZOL, Decyl-zoledronate] was tested, and the “bisphosphonate MICc” value (Aspergillus terreus) was 0.25, the FICI (Aspergillus udagawae; 5FC:10-ZOL) was 1 and the FICI (Aspergillus udagawae; CAS:10-ZOL) was 1. The FICI (Aspergillus udagawae; FLC:10-ZOL) was 1.02, the FICI (Aspergillus udagawae; ITR:10-ZOL) was 0.5 and the FICI (Aspergillus udagawae; VOR:10-ZOL) was 1.03. The “bisphosphonate MICc” value (Aspergillus udagawae; with 5FC) was 0.5, the “bisphosphonate MICc” value (Aspergillus udagawae; with AMB) was 0.5 and the “bisphosphonate MICc” value (Aspergillus udagawae; with CAS) was 0.5. The “bisphosphonate MICc” value (Aspergillus udagawae; with FLC) was 1, the “bisphosphonate MICc” value (Aspergillus udagawae; with ITR) was 0.25 and the “bisphosphonate MICc” value (Aspergillus udagawae; with KET) was 0.5. For the same compound, the “bisphosphonate MICc” value (Aspergillus udagawae; with VOR) was 1, the FICI (Microsporum canis; 5FC:10-ZOL) was 3 and the FICI (Microsporum canis; CAS:10-ZOL) was 2. The FICI (Microsporum canis; VOR:10-ZOL) was 1.16, the “bisphosphonate MICc” value (Microsporum canis; with 5FC) was 1 and the “bisphosphonate MICc” value (Microsporum canis; with AMB) was 0.25. The “bisphosphonate MICc” value (Microsporum canis; with CAS) was 1, the “bisphosphonate MICc” value (Microsporum canis; with FLC) was 0.25 and the “bisphosphonate MICc” value (Microsporum canis; with ITR) was 0.5. For the same compound, the “bisphosphonate MICc” value (Microsporum canis; with KET) was 1, the “bisphosphonate MICc” value (Microsporum canis; with VOR) was 0.125 and the FICI (Nannizzia nana; 5FC:10-ZOL) was 2. It also gave an FICI (Nannizzia nana; AMB:10-ZOL) of 2.25, an FICI (Nannizzia nana; CAS:10-ZOL) of 2.17 and an FICI (Nannizzia nana; FLC:10-ZOL) of 1.5. For the same compound, the FICI (Nannizzia nana; ITR:10-ZOL) was 2, the FICI (Nannizzia nana; VOR:10-ZOL) was 1.17 and the “bisphosphonate MICc” value (Nannizzia nana; with 5FC) was 1. For the same compound, the “bisphosphonate MICc” value (Nannizzia nana; with AMB) was 0.25, the “bisphosphonate MICc” value (Nannizzia nana; with CAS) was 0.25 and the “bisphosphonate MICc” value (Nannizzia nana; with FLC) was 0.5. For the same compound, the “bisphosphonate MICc” value (Nannizzia nana; with ITR) was 1, the “bisphosphonate MICc” value (Nannizzia nana; with KET) was 0.25 and the “bisphosphonate MICc” value (Nannizzia nana; with VOR) was 0.125. For the same compound, the FICI (Trichophyton tonsurans [1]; 5FC:10-ZOL) was 2, the FICI (Trichophyton tonsurans [1]; AMB:10-ZOL) was 2.92 and the FICI (Trichophyton tonsurans [1]; CAS:10-ZOL) was ≥4. The FICI (Trichophyton tonsurans [1]; FLC:10-ZOL) was 0.52, the “bisphosphonate MICc” value (Trichophyton tonsurans [1]; with 5FC) was 1 and the “bisphosphonate MICc” value (Trichophyton tonsurans [1]; with AMB) was 1. The “bisphosphonate MICc” value (Trichophyton tonsurans [1]; with CAS) was 1, the “bisphosphonate MICc” value (Trichophyton tonsurans [1]; with FLC) was 0.5 and the “bisphosphonate MICc” value (Trichophyton tonsurans [1]; with ITR) was 1. The “bisphosphonate MICc” value (Trichophyton tonsurans [1]; with KET) was 0.25, the “bisphosphonate MICc” value (Trichophyton tonsurans [1]; with VOR) was 0.5 and the “MIC / MEC” value (Fusarium solani) was 4 µg/mL. The “MIC / MEC” value (Trichophyton tonsurans [2]) was 1 µg/mL, the “MIC / MEC” value (Trichophyton soudanense) was 2 µg/mL and the FICI ([3]; 5FC:10-ZOL) was 3. For the same compound, the FICI ([3]; CAS:10-ZOL) was 1.09, the FICI ([3]; ITR:10-ZOL) was 1 and the FICI ([3]; VOR:10-ZOL) was ≥4. The “bisphosphonate MICc” value ([3]; with 5FC) was 1, the “bisphosphonate MICc” value ([3]; with AMB) was 2 and the “bisphosphonate MICc” value ([3]; with CAS) was 0.125. For the same compound, the “bisphosphonate MICc” value ([3]; with FLC) was 0.5, the “bisphosphonate MICc” value ([3]; with ITR) was 0.5 and the “bisphosphonate MICc” value ([3]; with KET) was 0.5. The “bisphosphonate MICc” value ([3]; with VOR) was 2, the FICI (Epidermophyton floccosum; 5FC:10-ZOL) was 1.5 and the FICI (Epidermophyton floccosum; AMB:10-ZOL) was 2. The “bisphosphonate MICc” value (Epidermophyton floccosum; with 5FC) was 0.5, the “bisphosphonate MICc” value (Epidermophyton floccosum; with AMB) was 0.5 and the “bisphosphonate MICc” value (Epidermophyton floccosum; with CAS) was 0.25. For the same compound, the “bisphosphonate MICc” value (Epidermophyton floccosum; with FLC) was 0.25, the “bisphosphonate MICc” value (Epidermophyton floccosum; with ITR) was 0.125 and the “bisphosphonate MICc” value (Epidermophyton floccosum; with KET) was 1. For the same compound, the “bisphosphonate MICc” value (Epidermophyton floccosum; with VOR) was 0.25, the FICI (Paraphyton cookei; 5FC:10-ZOL) was ≥4 and the FICI (Paraphyton cookei; AMB:10-ZOL) was 1.5. It also gave an FICI (Paraphyton cookei; CAS:10-ZOL) of 1.5, an FICI (Paraphyton cookei; FLC:10-ZOL) of 0.53 and an FICI (Paraphyton cookei; ITR:10-ZOL) of 0.53. The FICI (Paraphyton cookei; VOR:10-ZOL) was 0.9, the “bisphosphonate MICc” value (Paraphyton cookei; with 5FC) was 0.25 and the “bisphosphonate MICc” value (Paraphyton cookei; with AMB) was 0.25. The “bisphosphonate MICc” value (Paraphyton cookei; with CAS) was 0.25, the “bisphosphonate MICc” value (Paraphyton cookei; with FLC) was 0.25 and the “bisphosphonate MICc” value (Paraphyton cookei; with ITR) was 0.25. The “bisphosphonate MICc” value (Paraphyton cookei; with KET) was 0.25, the “bisphosphonate MICc” value (Paraphyton cookei; with VOR) was 0.125 and the FICI (Nannizzia gypsea; AMB:10-ZOL) was 2. It also gave an FICI (Nannizzia gypsea; CAS:10-ZOL) of 2.25, an FICI (Nannizzia gypsea; ITR:10-ZOL) of 1.5 and an FICI (Nannizzia gypsea; VOR:10-ZOL) of 1.5. The “bisphosphonate MICc” value (Nannizzia gypsea; with 5FC) was 0.5, the “bisphosphonate MICc” value (Nannizzia gypsea; with AMB) was 0.5 and the “bisphosphonate MICc” value (Nannizzia gypsea; with CAS) was 1. For the same compound, the “bisphosphonate MICc” value (Nannizzia gypsea; with FLC) was 0.25, the “bisphosphonate MICc” value (Nannizzia gypsea; with ITR) was 0.25 and the “bisphosphonate MICc” value (Nannizzia gypsea; with KET) was 0.25. For the same compound, the “bisphosphonate MICc” value (Nannizzia gypsea; with VOR) was 0.25, the FICI ([4]; 5FC:10-ZOL) was 1.5 and the FICI ([4]; CAS:10-ZOL) was 3. The “bisphosphonate MICc” value ([4]; with 5FC) was 1, the “bisphosphonate MICc” value ([4]; with AMB) was 0.25 and the “bisphosphonate MICc” value ([4]; with CAS) was 1. For the same compound, the “bisphosphonate MICc” value ([4]; with FLC) was 1, the “bisphosphonate MICc” value ([4]; with ITR) was 0.125 and the “bisphosphonate MICc” value ([4]; with KET) was 0.5. For the same compound, the “bisphosphonate MICc” value ([4]; with VOR) was 0.5.
